In patent publication US6897036B2, “Fluorescent detection of peroxidase enzymes” (Lumigen, Inc., priority 2002, dated 2005):

Key:
Format in all cases: biochemical, horseradish
HRP [1] = biological target: T1, HRP (Armoracia rusticana, UniProt P00433); assay: Evaluation of substrates: fluorescence spectra of the product formed by reaction with HRP; conditions: 0.05 mM substrate, HRP 13.8 fmol
T1 sequence (P00433 31-338): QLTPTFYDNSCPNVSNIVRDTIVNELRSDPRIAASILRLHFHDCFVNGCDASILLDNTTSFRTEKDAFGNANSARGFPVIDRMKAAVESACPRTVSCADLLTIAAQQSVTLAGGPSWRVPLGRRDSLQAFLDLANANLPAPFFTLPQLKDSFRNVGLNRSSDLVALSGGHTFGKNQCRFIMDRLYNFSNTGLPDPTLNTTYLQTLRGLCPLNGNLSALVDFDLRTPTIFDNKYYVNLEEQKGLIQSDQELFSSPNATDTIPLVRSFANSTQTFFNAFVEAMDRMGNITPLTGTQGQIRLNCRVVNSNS
Experimental: Enhanced reagent formulations containing each of Compounds 1-13 were prepared in either the Basic Formulation or the Acidic Formulation described below.
Fluorescence spectra were obtained on a Jobin Yvon/SPEX FluoroMax-3 spectrofluorometer with the excitation and emission slits set at 1.0 nm bandpass. UV Fluorimeter cuvettes (3.5 mL capacity, Perfector Scientific) were used.
Each of Compounds 1-13 was tested for production of a fluorescent product by reaction with HRP followed by spectrofluorometric analysis. A representative procedure using Compound 1 is described below. Essentially the same procedure was used for the other compounds.
Three mL of a 0.05 mM solution of ethyl N-methylacridan 9-carboxylate (Compound 1) in the acidic formulation were pipetted into a cuvette. Excitation (λem=524 nm) and emission (λex=[…]) spectra were recorded. HRP (13.8 fmol, 4.6×10^−12M) was added and mixed thoroughly. The increase in fluorescence at 524 nm was recorded over 15 min. Excitation (λem=524 nm) and emission (λex=357 nm) spectra were recorded again.

HRP [2] = biological target: T1, HRP; assay: Fluorescent detection sensitivity of HRP (microtiter plate fluorometer, FIG. 3); conditions: 0.05 mM substrate in acidic formulation
Experimental: FIG. 3 is a graph showing the linearity of detection of HRP using fluorogenic substrates performed according to the methods of the present invention. Solutions containing 0.05 mM substrate 1 or 4, 0.1 mM 4-phenylphenol, 0.5 mM urea peroxide, 1 mM EDTA, 0.025% TWEEN 20 in 10 mM acetate buffer, pH 5 and a solution of 0.05 mM substrate 2, 0.1 mM 4-phenylphenol, 0.5 mM urea peroxide, 1 mM EDTA, 0.025% TWEEN 20 in 10 mM in 10 mM tris, pH 8 were reacted with the indicated quantities of HRP. After a reaction period of 15-20 min, fluorescence intensity was measured at the maximum. The term Intensity-Background refers to the fluorescence intensity in relative light units in the presence of HRP corrected for background fluorescence (B) in the absence of HRP. […]
Fluorescence detection limits were obtained on a Labsystems Fluoroskan Ascent microtiter plate fluorometer using an excitation bandpass filter (380 nm) and an emission bandpass filter (465 or 530 nm). […] The strips were then read on the Fluoroskan Ascent with the 380 nm-530 nm filter set.
(§1) HRP was serially diluted in type 1 water and 10 μl of diluted HRP was pipetted into each well. […] The strips were then read on the Fluoroskan Ascent with the 380 nm-465 nm filter set.
as §1

HRP [3] = biological target: T1, HRP; assay: Fluorescence signal/background measurements in the presence of HRP; conditions: HRP 13.8 fmol, t=15 min vs t=0
Experimental: Three mL of a solution of each substrate in either the acidic or basic formulation described in Example 12 were pipetted into a cuvette. HRP (13.8 fmol, 4.6×10^−12M) was added and mixed thoroughly. The increase in fluorescence at the maximum was recorded after 15 min for each substrate. Signal-background values were calculated by comparing the fluorescence intensities at t=0 minutes and t=15 minutes.

HRP [4] = biological target: T1, HRP; assay: Sequential fluorescence spectra and kinetics of fluorescent product formation with HRP
Description: FIG. 1 is a graph showing a series of sequential fluorescence spectra obtained from a reaction solution containing Compound 10 and HRP. The spectra correspond to the fluorescence of the acridinium product. For comparison, the fluorescence spectrum of an independently prepared sample of N-methylacridinium triflate is shown.
FIG. 2 is a graph showing the time course of the generation of fluorescent product from the reaction described in FIG. 1. The product is monitored by excitation at 357 nm and detecting fluorescence emission at 495 nm.
FIG. 4 is a graph showing the a series of sequential fluorescence spectra obtained from a reaction solution containing compound 12 and HRP. The spectra reveal the formation of the acridinium ester intermediate and N-methylacridone product.
Three mL of a 0.05 mM solution of N-methylacridan in the acidic formulation were pipetted into a cuvette. HRP (13.8 fmol, 4.6×10^−12M) was added and mixed thoroughly. Emission spectra (excitation at 357 nm) were obtained at 4.5 minute intervals over 1.8 h. The emission spectrum (excitation at 357 nm) of a 0.05 mM solution of N-methyl acridinium triflate in the acidic formulation is also shown for comparison with the emission spectra from the N-methylacridan/HRP solution.
FIG. 2 depicts the fluorescence intensity at 495 nm (with excitation at 357 nm) from the reaction solution of Example 16 as a function of time. Fluorescence intensity reached a maximum in 2 h and remained constant.
Three mL of a reagent containing 0.3 mM 2′,3′,6′-trifluorophenyl 10-methylacridan-9-carboxylate (compound 12), 0.1 mM 4-phenylphenol, 0.5 mM urea peroxide, 1 mM EDTA, and 0.025% TWEEN 20 in 0.01 M tris buffer, pH 8.0 were pipetted into a cuvette. HRP (13.8 fmol, 4.6×10^−12M) was added and mixed thoroughly. Emission spectra (excitation at 357 nm) were obtained at 4.5 minute intervals over 1.8 h.

HRP [5] = biological target: T1, HRP; assay: Fluorescent detection of HRP by acridinium ester end product formation; conditions: for Fluorescence wavelength of the acridinium end product: reaction with HRP, tris pH 8.0
Experimental: Forty μL of a detection reagent consisting of 0.05 mM compound 14, 0.6 mM urea peroxide, 0.1 mM p-phenylphenol, 0.025% TWEEN 20, 1 mM EDTA in 0.01 M tris buffer, pH 8.0 was reacted with 1 μL of HRP (1.4×10^−16 mol) at room temperature. Acridinium ester end product formation was detected after 5 min and continued to increase over 1 h as detected by spectrophotometry and fluorescence at 500 nm. [drawing 12]

[6] = 0.05 mM substrate, tris pH 8.0, HRP 1.4×10^−16 mol, room temperature

Row | Structure (SMILES) | Fluorescent properties of acridan substrates (fluorescence emission maximum after reaction with HRP) (HRP [1]; pH 5 acidic formulation) [nm] | Fluorescent properties of acridan substrates (fluorescence emission maximum after reaction with HRP) (HRP [1]; pH 8 basic formulation) [nm] | Fluorescent intensity in the presence of HRP (as S/B) (HRP [3]; pH 5 acidic formulation) | other results
1 | CCOC(=O)C1c2ccccc2N(C)c2ccccc21 [Compound 1, ethyl N-methylacridan 9-carboxylate] | 524 | 524 | 29.5 | Fluorescent detection sensitivity of HRP (in words) (HRP [2]): excellent sensitivity; Fluorescent intensity in the presence of HRP (as S/B) (HRP [3]; pH 8 basic formulation): 11.0
2 | COc1ccc(C2c3ccccc3N(C)c3ccccc32)cc1 [Compound 3] | 484 | 484 | 1.4 | 
3 | Fc1ccc(N2c3ccccc3Cc3ccccc32)cc1 [Compound 4, N-(4-fluorophenyl)acridan] | 497 | 496 | 3.9 | Fluorescent detection sensitivity of HRP (in words) (HRP [2]): excellent sensitivity
4 | c1ccc(CN2c3ccccc3Cc3ccccc32)cc1 [Compound 5, N-benzylacridan] | 494 | 494 | 5.6 | 
5 | COc1ccc2c(c1)N(c1ccccc1)c1ccccc1C2 [Compound 6] | 512 | 511 | 3.6 | 
6 | CC1c2ccccc2N(C)c2ccccc21 [Compound 7] | 490 | 488 | 15.8 | 
7 | O=C(O)C1c2ccccc2N(Cc2ccccc2)c2ccccc21 [Compound 8, N-benzyl-acridan-9-carboxylic acid] |  | 493 |  | 
8 | CN1c2ccccc2C(C(=O)O)c2ccccc21 [Compound 9] |  | 489 |  | Fluorescent intensity in the presence of HRP (as S/B) (HRP [3]; pH 8 basic formulation): 4.3
9 | CN1c2ccccc2Cc2ccccc21 [Compound 10, N-methylacridan] |  | 490 |  | Time at which fluorescence intensity reached a maximum (HRP [4]; 0.05 mM in acidic formulation, HRP 13.8 fmol, emission 495 nm, excitation 357 nm): 2 h; Product of the HRP reaction identified from emission spectra (in words) (HRP [4]; 0.05 mM in acidic formulation, HRP 13.8 fmol, excitation 357 nm, compared with N-methyl acridinium triflate): enzymatic conversion of Compound 10 to the fluorescent acridinium compound
10 | c1ccc(N2c3ccccc3C(C3c4ccccc4N(c4ccccc4)c4ccccc43)c3ccccc32)cc1 [Compound 11] | 494 | 494 | 84.0 | Fluorescent intensity in the presence of HRP (as S/B) (HRP [3]; pH 8 basic formulation): 6.1
11 | CN1c2ccccc2C(C(=O)Oc2c(F)ccc(F)c2F)c2ccccc21 [Compound 12, 2′,3′,6′-trifluorophenyl 10-methylacridan-9-carboxylate, reference compound] |  |  |  | Progression of the HRP reaction from emission spectra (in words) (HRP [4]; 0.3 mM substrate, tris buffer pH 8.0, HRP 13.8 fmol, spectra every 4.5 min over 1.8 h): grow in of acridinium fluorescence and gradual predominance of N-methylacridone fluorescence
12 | COc1ccc2c(c1)N(C)c1cccc(OC)c1C2C(=O)Oc1c(F)ccc(F)c1F (stereo not shown) [Compound 14] |  |  |  | Period over which end product formation continued to increase (HRP [5]; [6]): 1 h; Time after which acridinium ester end product formation was detected (HRP [5]; [6]): 5 min; Fluorescence wavelength of the acridinium end product (HRP [5]): 500 nm
13 | COc1ccc2c(c1)N(C)c1c(C)ccc(OC)c1C2C(=O)Oc1c(F)ccc(F)c1F (stereo not shown) [Compound 15, 2,3,6-trifluoro-phenyl 1,6-dimethoxy-4,10-dimethylacridan-9-carboxylate] |  |  |  | Result of the reaction with HRP (in words) (HRP [5]; experiment similar to that with compound 14): fluorescent acridinium end product formation; Fluorescence wavelength of the acridinium end product (HRP [5]): 500 nm
